The text below walks through data of US20230321012A1 (priority 2021, published 2023).

Data set [1] in a line: Water solubility, bioavailability and Biopharmaceutics Classification System class. It counts as physicochemical. Particulars: oral. An excerpt:
Interim data for the pharmacokinetic (PK) behavior of both agents in human subjects has been generated.

A short description of data set [2]: Clinical safety and tolerability, dose-limiting toxicities (NCT03536728). It counts as in vivo. An excerpt: Clinical Trial Outline. […] All solid tumor types are eligible for the trial. […] DFMO was delivered orally twice daily in gel capsules.
These DLTs involved vomiting, diarrhea and nausea, and inferred a potential dual drug targeting of the gastrointestinal (GI) tract in these patients. One patient experienced severe dehydration, requiring hospitalization. A similar observation was made in dogs in Aminex's 28-day toxicological testing. […] The clinical observations and the data obtained in dog studies, together, support the hypothesis that combined oral drug dosing levels and DFMO targeting of the GI tract are causing the intolerance.
In cohorts before Part 2, Cohort 4, 14 adults were treated at 1,200 mg or higher of AMXT 1501 daily, either once daily or BID, with no DLTs. A total of 18 patients were treated at 800 mg AMXT 1501 or higher daily with no DLTs. These patients included a couple of adult patients where Cmax values above 1,000 ng/mL AMXT 1501 plasma levels were observed, again with no DLTs observed.

Entries after “also recorded” stand apart in the source; their conditions may differ.

On to `CCCCCCCCCCCCCCCC(=O)NCCCC[C@@H](N)C(=O)NCCCNCCCCNCCCN` [AMXT 1501 dicaprate], for which the bioavailability entry in data set [1] is on record as “low bioavailability”. Also, the clinical tolerability result in data set [2] (oral 1,200 mg AMXT 1501 dicaprate alone, once daily or split BID) is “well tolerated clinically; also recorded: well-tolerated clinically”. Further, the “GI adverse effects on changing from once daily to twice daily (BID) delivery” value in data set [2] (patients, similar dose levels) is recorded as “greatly reduced; also recorded: substantially minimized”.
